The source of these data is patent publication US8957076B2, “Wound healing” (Systagenix Wound Management (US), Inc., priority 2004, dated 2015).

The subject of this assay is diabetic wounds. Put plainly: Closure of full thickness flank skin wounds in diabetic mice, topical treatment. The format is in vivo, mice (C57BLKs/Bom db/db). As to conditions: for % wound area remaining relative to day 0 (mean ± standard error): six wounds. The procedure:
Female diabetic mice (C57BLKs/Bom db/db; B&M, Denmark) aged approximately 16 weeks will be used in this study. On arrival mice were housed in groups of 5 to 10 according to Home Office regulations. On the first day of the study period, animals were housed in individual cages (cage dimensions 35×15×15 cm with sawdust bedding, changed twice weekly), in an environment maintained at an ambient temperature of 23° C. with 12-hour light/dark cycles. They were provided with food (Standard Rodent Diet) and water ad libitum. To acclimatise the animals to their surroundings, prior to experimentation, they were housed for a minimum of one week without disturbance, other than to refresh their bedding and to replenish their food and water provisions. Following wounding, animals were monitored until they had fully recovered from the procedure and then housed under individual conditions for the remainder of the study period. All animal procedures were carried out in a Home Office licensed establishment in accordance with Home Office Licence procedures. Animals were anaesthetised (halothane and air) and shaved. A single standardised full thickness wound (7.5 mm×7.5 mm) was created in the flank skin of each experimental animal. Wounds received, saline [50 μl], vehicle [50 μl pH 4.0 vehicle], 1 μg of p38 MAP kinase inhibitor [in 50 μl pH 4.0 vehicle] or 10 μg of p38 MAP kinase inhibitor [in 50 μl pH 4.0 vehicle]. The p38 MAP kinase inhibitor had the following formula: All wounds were secondarily dressed with a 1.5×1.5 cm pad of RELEASE dressing (Johnson & Johnson Wound Management). The RELEASE pad was held in place using a circumferential band of the occlusive film dressing Bioclusive (Johnson & Johnson Wound Management). Animals were re-anaesthetized and treatments re-applied on days 2, 4, 7, 9 and 11-post wounding. Immediately after wounding and subsequently on days 2, 4, 7, 9, 11 and 14 all wounds were digitally photographed together with a calibration/identity plate. On day 14 of the study animals will be euthanised. Image Pro image analysis software (version 4.1.0.0, Media Cybernetics, USA) was used to calculate wound closure from wound images in each of the experimental groups over time. Non-parametric analysis (Kruskal Wallis—Multivariate Analysis followed by ad hoc two sample Mann Whitney U-test analysis) will be used to test the significance of any inter-group differences in wound closure.

Regarding `CC(=O)N1CCN(c2c(-c3ccncc3)c(-c3ccc(F)cc3)c(C#N)n2C)CC1` [p38 MAP kinase inhibitor], the “% wound area remaining relative to day 0 (mean ± standard error)” value amounted to 86.15 ± 6.63% (1.0 μg per wound in 50 μl pH 4.0 vehicle, day 2 post-wounding); 66.32 ± 6.58% (1.0 μg per wound in 50 μl pH 4.0 vehicle, day 4 post-wounding); 38.65 ± 2.62% (1.0 μg per wound in 50 μl pH 4.0 vehicle, day 7 post-wounding); 18.87 ± 4.44% (1.0 μg per wound in 50 μl pH 4.0 vehicle, day 9 post-wounding); 6.03 ± 2.17% (1.0 μg per wound in 50 μl pH 4.0 vehicle, day 11 post-wounding); 75.48 ± 6.32% (10.0 μg per wound in 50 μl pH 4.0 vehicle, day 2 post-wounding). The “% wound area remaining relative to day 0 (mean ± standard error)” value (10.0 μg per wound in 50 μl pH 4.0 vehicle, day 4 post-wounding) was determined as 58.34 ± 6.49%; the “% wound area remaining relative to day 0 (mean ± standard error)” value (10.0 μg per wound in 50 μl pH 4.0 vehicle, day 7 post-wounding) amounted to 29.80 ± 4.66%; the “% wound area remaining relative to day 0 (mean ± standard error)” value (10.0 μg per wound in 50 μl pH 4.0 vehicle, day 9 post-wounding) came out at 13.31 ± 1.64%; the “% wound area remaining relative to day 0 (mean ± standard error)” value (10.0 μg per wound in 50 μl pH 4.0 vehicle, day 11 post-wounding) is listed as 3.34 ± 0.96%. For the setting “10.0 μg, day 2, 7, 11 p=0.055, day 9 p=0.025 (statistically significant)”, the “closure compared to saline treatment” value is recorded as “noticeably more rapid”. The “wound size compared to citrate treated wounds” value (10.0 μg, day 9 and day 11 assessment points) is “statistically smaller”. The “closure of diabetic wounds compared to treatment with the vehicle” value (versus Citrate Buffer, pH 4.0, effect most apparent for the highest dose) is recorded as “appeared to accelerate the closure of diabetic wounds”.
